Where “and” joins values, the source holds several entries; their conditions need not be identical. Equal values may be shown once. Read-outs that look alike come from different tables or passages of the source. Where a SMILES comes first, the peptide text is derived from it. [ ]: non-standard residue; d: D form. The star is where a group is joined. 5FAM = O=C1OC2(c3ccc(O)cc3Oc3cc(O)ccc32)c2ccc(C(=O)*)cc21; pS = N[C@@H](COP(=O)(O)O)C(=O)O
How the values were obtained:
PHF3 SPOC = molecular target: T1, PHF3 SPOC (Homo sapiens, UniProt Q92576); experiment: Fluorescence anisotropy binding of labeled peptides to PHF3 SPOC WT
T1 construct: His6-PHF3 SPOC was generated previously; His6 (N, cleaved yes); made in house; host or cells: E. coli Rosetta2 (DE3)
T1 sequence (Q92576 1199-1356 limits assumed): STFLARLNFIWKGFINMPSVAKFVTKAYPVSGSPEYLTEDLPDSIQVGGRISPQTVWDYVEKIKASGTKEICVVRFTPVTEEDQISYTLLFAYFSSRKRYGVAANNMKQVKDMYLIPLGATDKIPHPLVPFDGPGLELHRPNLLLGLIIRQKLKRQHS
Description: (§1) SPOC domains were expressed in E. coli Rosetta2 (DE3) cells (Novagen). ON cultures were diluted 1:50 in 2×TY, grown at 37 °C until OD600 = 0.8, and induced with 0.5 mM IPTG for 3 h at 30 °C. […] Elution with 25 mM Tris-Cl pH 7.4, 500 mM NaCl, and 500 mM Imidazole was followed by TEV cleavage of the His6-tag and size exclusion chromatography using Sephacryl S-200 HR 16/600 or 26/600 (Cytiva) equilibrated in 25 mM Tris-Cl pH 7.4, 25 mM NaCl, 1 mM DTT.
(§2) One molar equivalent of Atto-488 NHS ester (Atto-tec) and five equivalents of DIPEA (Sigma-Aldrich) was added to three equivalents of the peptide. Reactions were incubated ON at room temperature (RT) and protected from light. Labeled peptides were purified by reverse-phase HPLC over a C18 column (Agilent Technologies) using a gradient from 30 to 70% Methanol (Merck). Purified peptides were lyophilized and stored at −20 °C.
(§3) Fluorescence anisotropy measurements were performed on a Perkin Elmer LS50 B fluorescence spectrometer operated by Perkin Elmar FL WinLab software (version 3.00). The excitation wavelength was set to 500 nm (excitation slit 10 nm), the emission wavelength to 518 nm (emission slit 6 nm), and the integration time to 1 s. Measurements were conducted at 20 °C in 25 mM Tris-Cl pH 7.4, 25 mM NaCl, and 1 mM DTT. The grating factor was determined using unconjugated Atto-488 dye. […]

PHF3 SPOC R1248A = molecular target: T2, PHF3 SPOC R1248A (Homo sapiens, UniProt Q92576, R1248A); experiment: Fluorescence anisotropy binding of labeled peptides to PHF3 SPOC R1248A; details: 90 nM labeled peptide, 25 mM Tris-Cl pH 7.4, 25 mM NaCl, 1 mM DTT, 20 °C, three independent experiments
T2 construct: His6-PHF3 SPOC was generated previously; His6 (N, cleaved yes); made in house; host or cells: E. coli Rosetta2 (DE3)
T2 sequence (Q92576 1199-1356 R1248A limits assumed): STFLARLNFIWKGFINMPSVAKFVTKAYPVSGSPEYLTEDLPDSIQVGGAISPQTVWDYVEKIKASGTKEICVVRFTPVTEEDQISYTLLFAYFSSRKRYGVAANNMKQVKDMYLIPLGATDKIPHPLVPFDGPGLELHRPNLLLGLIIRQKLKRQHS
Description: (§4) For mammalian expression, human DIDO3, SHARP, and RBM15 were amplified from HEK293T cDNA and cloned into CMV10 N3XFLAG (Sigma) by Gibson assembly (NEB). These constructs were used for cloning ΔSPOC truncations using Gibson assembly (NEB). CMV10 N3XFLAG-PHF3 and PHF3 ΔSPOC constructs were generated previously. NLS-SPOC constructs were cloned into CMV10 N3XFLAG (Sigma) between NotI and XbaI. NLS sequence ([…]) was introduced to ensure nuclear localization of the isolated SPOC domains. […] His6-PHF3 SPOC was generated previously. Arginine mutations were introduced by site-directed mutagenesis according to the FastCloning protocol. Repair templates for CRISPR/Cas9 knock-in were cloned by Gibson assembly. Primer sequences are listed in Supplementary Table 4.
(§5) SPOC domains were expressed in E. coli Rosetta2 (DE3) cells (Novagen). ON cultures were diluted 1:50 in 2×TY, grown at 37 °C until OD600 = 0.8, and induced with 0.5 mM IPTG for 3 h at 30 °C. […]
(§6) Fluorescence anisotropy measurements were performed on a Perkin Elmer LS50 B fluorescence spectrometer operated by Perkin Elmar FL WinLab software (version 3.00). […] The grating factor was determined using unconjugated Atto-488 dye. […]

DIDO SPOC = molecular target: T3, DIDO SPOC (Homo sapiens, UniProt Q9BTC0); experiment: Fluorescence anisotropy binding of labeled peptides to DIDO SPOC WT; details: 90 nM labeled peptide, 25 mM Tris-Cl pH 7.4, 25 mM NaCl, 1 mM DTT, 20 °C, three independent experiments
T3 construct: human DIDO3 SPOC (1047–1205 aa); His6 (N, cleaved yes); made in house; host or cells: E. coli Rosetta2 (DE3)
T3 sequence (Q9BTC0 1047-1205): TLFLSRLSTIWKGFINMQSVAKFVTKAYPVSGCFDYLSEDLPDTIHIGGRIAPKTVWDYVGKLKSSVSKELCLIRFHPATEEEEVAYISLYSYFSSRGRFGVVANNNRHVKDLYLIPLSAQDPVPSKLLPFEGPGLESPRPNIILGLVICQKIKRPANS
Description: as §4, §5, §6

DIDO SPOC R1096A = molecular target: T4, DIDO SPOC R1096A (Homo sapiens, UniProt Q9BTC0, R1096A); experiment: Fluorescence anisotropy binding of labeled peptides to DIDO SPOC R1096A; details: 90 nM labeled peptide, 25 mM Tris-Cl pH 7.4, 25 mM NaCl, 1 mM DTT, 20 °C, three independent experiments
T4 construct: human DIDO3 SPOC (1047–1205 aa); His6 (N, cleaved yes); made in house; host or cells: E. coli Rosetta2 (DE3)
T4 sequence (Q9BTC0 1047-1205 R1096A): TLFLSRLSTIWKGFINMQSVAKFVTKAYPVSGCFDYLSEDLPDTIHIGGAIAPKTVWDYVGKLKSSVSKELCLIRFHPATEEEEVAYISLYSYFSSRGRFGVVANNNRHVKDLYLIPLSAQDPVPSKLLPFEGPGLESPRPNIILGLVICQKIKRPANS
Description: as §4, §5, §6

RBM15 SPOC = molecular target: T5, RBM15 SPOC (Homo sapiens, UniProt Q96T37); experiment: Fluorescence anisotropy binding of labeled peptides to RBM15 SPOC WT; details: 90 nM labeled peptide, 25 mM Tris-Cl pH 7.4, 25 mM NaCl, 1 mM DTT, 20 °C, three independent experiments
T5 construct: RBM15 SPOC (775–960 aa); His6 (N, cleaved yes); made in house; host or cells: E. coli Rosetta2 (DE3)
T5 sequence (Q96T37 775-960): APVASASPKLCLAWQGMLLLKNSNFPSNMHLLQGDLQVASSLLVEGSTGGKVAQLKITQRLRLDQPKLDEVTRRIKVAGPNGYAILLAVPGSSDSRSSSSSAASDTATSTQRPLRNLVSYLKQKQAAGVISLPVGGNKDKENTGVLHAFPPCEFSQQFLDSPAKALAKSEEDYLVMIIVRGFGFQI
Description: as §4, §1, §2, §3

SHARP SPOC = molecular target: T6, SHARP SPOC (Homo sapiens, UniProt Q96T58); experiment: Fluorescence anisotropy binding of labeled peptides to SHARP SPOC WT; details: 90 nM labeled peptide, 25 mM Tris-Cl pH 7.4, 25 mM NaCl, 1 mM DTT, 20 °C, three independent experiments
T6 construct: SHARP SPOC (3496–3664 aa); His6 (N, cleaved yes); made in house; host or cells: E. coli Rosetta2 (DE3)
T6 sequence (Q96T58 3496-3664): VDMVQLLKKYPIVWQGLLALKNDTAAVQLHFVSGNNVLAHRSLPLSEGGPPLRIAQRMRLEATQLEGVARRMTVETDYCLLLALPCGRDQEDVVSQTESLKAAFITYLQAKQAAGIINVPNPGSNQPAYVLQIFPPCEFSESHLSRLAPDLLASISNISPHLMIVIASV

SHARP SPOC R3552A = molecular target: T7, SHARP SPOC R3552A (Homo sapiens, UniProt Q96T58, R3552A); experiment: Fluorescence anisotropy binding of labeled peptides to SHARP SPOC R3552A; details: 90 nM labeled peptide, 25 mM Tris-Cl pH 7.4, 25 mM NaCl, 1 mM DTT, 20 °C, three independent experiments
T7 construct: SHARP SPOC (3496–3664 aa); His6 (N, cleaved yes); made in house; host or cells: E. coli Rosetta2 (DE3)
T7 sequence (Q96T58 3496-3664 R3552A): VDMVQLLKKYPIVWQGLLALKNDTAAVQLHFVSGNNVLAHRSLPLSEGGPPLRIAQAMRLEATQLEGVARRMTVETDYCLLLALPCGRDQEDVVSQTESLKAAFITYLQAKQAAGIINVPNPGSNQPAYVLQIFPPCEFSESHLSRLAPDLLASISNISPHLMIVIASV
Description: as §4, §5, §6

## C[C@@H](O)[C@H](NC(=O)[C@@H]1CCCN1C(=O)[C@H](CO)NC(=O)[C@H](Cc1ccc(O)cc1)NC(=O)[C@H](CO)NC(=O)[C@@H]1CCCN1C(=O)[C@H](CO)NC(=O)[C@@H](NC(=O)[C@@H]1CCCN1C(=O)[C@H](COP(=O)(O)O)NC(=O)[C@H](Cc1ccc(O)cc1)NC(=O)[C@H](CO)NC(=O)[C@@H]1CCCN1)[C@@H](C)O)C(=O)N[C@@H](CO)C(=O)N1CCC[C@H]1C(=O)N[C@@H](CO)C(=O)O [1xS2P]
PHF3 SPOC
  Kd: 103 ± 4 µM

## C[C@@H](O)[C@H](NC(=O)[C@@H]1CCCN1C(=O)[C@H](COP(=O)(O)O)NC(=O)[C@H](Cc1ccc(O)cc1)NC(=O)[C@H](CO)NC(=O)[C@@H]1CCCN1C(=O)[C@H](CO)NC(=O)[C@@H](NC(=O)[C@@H]1CCCN1C(=O)[C@H](COP(=O)(O)O)NC(=O)[C@H](Cc1ccc(O)cc1)NC(=O)[C@H](CO)NC(=O)[C@@H]1CCCN1)[C@@H](C)O)C(=O)N[C@@H](CO)C(=O)N1CCC[C@H]1C(=O)N[C@@H](CO)C(=O)O [2xS2P]
PHF3 SPOC R1248A
  Kd: 8.4 ± 0.3 µM
PHF3 SPOC; PHF3 SPOC WT, fluorescence anisotropy, 90 nM labeled peptide titrated with SPOC domain, 25 mM Tris-Cl pH 7.4, 25 mM NaCl, 1 mM DTT, 20 °C, three independent experiments, read-out: Kd
  Kd: 0.42 ± 0.02 µM
DIDO SPOC
  Kd: 4.8 ± 0.6 µM
DIDO SPOC R1096A
  Kd: 22.4 ± 2.1 µM

## C[C@@H](O)[C@H](NC(=O)[C@@H]1CCCN1C(=O)[C@H](CO)NC(=O)[C@H](Cc1ccc(O)cc1)NC(=O)[C@H](CO)NC(=O)[C@@H]1CCCN1C(=O)[C@H](COP(=O)(O)O)NC(=O)[C@@H](NC(=O)[C@@H]1CCCN1C(=O)[C@H](CO)NC(=O)[C@H](Cc1ccc(O)cc1)NC(=O)[C@H](CO)NC(=O)[C@@H]1CCCN1)[C@@H](C)O)C(=O)N[C@@H](COP(=O)(O)O)C(=O)N1CCC[C@H]1C(=O)N[C@@H](CO)C(=O)O [2xS5P]
RBM15 SPOC; read-out: Kd
  Kd: 11.8 µM and 29.6 µM
SHARP SPOC
  Kd: 20.6 ± 0.1 µM

## C[C@@H](O)[C@H](NC(=O)[C@@H]1CCCN1C(=O)[C@H](CO)NC(=O)[C@H](Cc1ccc(O)cc1)NC(=O)[C@H](COP(=O)(O)O)NC(=O)[C@@H]1CCCN1C(=O)[C@H](CO)NC(=O)[C@@H](NC(=O)[C@@H]1CCCN1C(=O)[C@H](CO)NC(=O)[C@H](Cc1ccc(O)cc1)NC(=O)[C@H](CO)NC(=O)[C@@H]1CCCN1)[C@@H](C)O)C(=O)N[C@@H](CO)C(=O)N1CCC[C@H]1C(=O)N[C@@H](COP(=O)(O)O)C(=O)O [2xS7P]
RBM15 SPOC; Kd
  Kd: 23.5 ± 0.4 µM

## CC(C)C[C@H](NC(=O)[C@H](CC(C)C)NC(=O)[C@@H]1CCCN1C(=O)[C@H](C)NC(=O)[C@@H]1CCCN1C(=O)[C@H](CCC(=O)O)NC(=O)[C@H](CCCNC(=N)N)NC(=O)c1ccc2c(c1)C(=O)OC21c2ccc(O)cc2Oc2cc(O)ccc21)C(=O)N[C@@H](CO)C(=O)N[C@@H](C)C(=O)N[C@@H](CCC(N)=O)C(=O)N[C@@H](Cc1ccc(O)cc1)C(=O)N[C@@H](CCC(=O)O)C(=O)N[C@H](C(=O)N[C@@H](CC(C)C)C(=O)N[C@@H](COP(=O)(O)O)C(=O)N[C@@H](CC(=O)O)C(=O)N[C@@H](CO)C(=O)N[C@@H](CC(=O)O)C(=O)N[C@@H](CC(=O)O)C(=O)O)[C@@H](C)O [NCoR pS2436] (5FAM-REPAPLLSAQYETL[pS]DSDD-OH)
SHARP SPOC R3552A
  Kd: 23.3 ± 0.5 µM

## CC(C)C[C@H](NC(=O)[C@H](CC(C)C)NC(=O)[C@@H]1CCCN1C(=O)[C@H](C)NC(=O)[C@@H]1CCCN1C(=O)[C@H](CCC(=O)O)NC(=O)[C@H](CCCNC(=N)N)NC(=O)c1ccc2c(c1)C(=O)OC21c2ccc(O)cc2Oc2cc(O)ccc21)C(=O)N[C@@H](CO)C(=O)N[C@@H](C)C(=O)N[C@@H](CCC(N)=O)C(=O)N[C@@H](Cc1ccc(O)cc1)C(=O)N[C@@H](CCC(=O)O)C(=O)N[C@H](C(=O)N[C@@H](CC(C)C)C(=O)N[C@@H](CO)C(=O)N[C@@H](CC(=O)O)C(=O)N[C@@H](CO)C(=O)N[C@@H](CC(=O)O)C(=O)N[C@@H](CC(=O)O)C(=O)O)[C@@H](C)O [NCoR] (5FAM-REPAPLLSAQYETLSDSDD-OH)
SHARP SPOC R3552A
  Kd: 262 ± 74.2 µM

## CSCC[C@H](NC(=O)c1ccc2c(c1)C(=O)OC21c2ccc(O)cc2Oc2cc(O)ccc21)C(=O)N[C@H](C(=O)N[C@@H](CC(N)=O)C(=O)N[C@@H](CCC(=O)O)C(=O)N[C@@H](CCC(=O)O)C(=O)N1CCC[C@H]1C(=O)N[C@@H](CC(C)C)C(=O)N1CCC[C@H]1C(=O)N[C@@H](CCCCN)C(=O)N[C@@H](CCCCN)C(=O)N[C@H](C(=O)N[C@@H](CCCNC(=N)N)C(=O)N[C@@H](CC(C)C)C(=O)N[C@@H](COP(=O)(O)O)C(=O)N[C@@H](CCC(=O)O)C(=O)N[C@H](C(=O)N[C@@H](CC(=O)O)C(=O)N[C@@H](Cc1ccccc1)C(=O)N[C@@H](CCCCN)C(=O)O)[C@@H](C)O)C(C)C)[C@@H](C)O [WTAP pS14] (5FAM-MTNEEPLPKKVRL[pS]ETDFK-OH)
RBM15 SPOC; read-out: Kd
  Kd: 21.5 ± 1.5 µM
